A short description of the data set: In vitro release of paclitaxel from triblock copolymer gel into PBS release media. Type of data set: physicochemical. To be noted: 23% by weight aqueous triblock copolymer of Example 1, paclitaxel approx. 2.0 mg/ml; PBS pH 7.4 with 2.4% Tween-80 and 4% Cremophor EL, 37° C.; HPLC. The procedure: To a 23% by weight aqueous solution of the triblock copolymer of Example 1 is added sufficient paclitaxel to provide approximately 2.0 mg/ml of drug. A 2 ml sample of this solution is put onto a watchglass and equilibrated at 37° C. Since the temperature is greater than the gelation temperature of the copolymer, a gel formed on the watchglass. The watchglass is placed in a 200 ml beaker containing release media comprised of 150 ml of PBS (pH 7.4) containing 2.4% by weight Tween-80 and 4% by weight Cremophor EL equilibrated at 37° C. The solution in the beaker was stirred, and the top of the beaker is sealed to prevent evaporation. The whole assembly was placed into an incubator at 37° C. The release study is performed in triplicate. At different time periods a 5 ml aliquot of the release media was taken and analyzed for […]. The PBS solution was replaced with fresh PBS after each aliquot removal. Samples were collected at 1, 2, 4, 8, 18, and 24 hours, and thereafter at 24 hour intervals, and analyzed by HPLC. The release profile of […] from the gel is determined. The gel formulation provides excellent control over the release of the paclitaxel for approximately 50 days.

Regarding `CC(=O)O[C@H]1C(=O)[C@@]2(C)[C@H]([C@H](OC(=O)c3ccccc3)[C@]3(O)C[C@H](OC(=O)[C@H](O)[C@@H](NC(=O)c4ccccc4)c4ccccc4)C(C)=C1C3(C)C)[C@]1(OC(C)=O)CO[C@@H]1C[C@@H]2O` [paclitaxel], the “duration of controlled release from the gel formulation” value is “approximately 50 days”.

The record behind these values is patent US20060235084A1, “PEG-polyacetal diblock and triblock copolymers and pharmaceutical compositions” (priority 2005, published 2006).
